How the values were obtained:
Test in all cases: relative viability (nuclei count vs DMSO), 5 days (fraction); higher = more cells survive
[1] = compound: C=CCn1c(=O)c2cnc(Nc3ccc(N4CCN(C)CC4)cc3)nc2n1-c1cccc(C(C)(C)O)n1 [Adavosertib] + Cc1nc(NC(=O)N2CCC[C@H]2C(N)=O)sc1-c1ccnc(C(C)(C)C(F)(F)F)c1 [Alpelisib] (partner 2 µM)
Procedure, shortened: (§1)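 Cells from lung cancer lines were seeded into 1536-well plates and, one day later, dosed by pin tool. Treatments were either a single drug or a fixed dose of an anchor drug with five library-drug doses (not always all listed) in √10 steps. After 5 days, nuclei were stained in a one-step fixation (final 0.05% Triton X-100, 1% formaldehyde, 1 ug/ml Hoechst) and counted on 4× images, and relative viability is the treated-to-vehicle nuclei ratio, as the median of duplicate plates.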

[2] = compound: C=CCn1c(=O)c2cnc(Nc3ccc(N4CCN(C)CC4)cc3)nc2n1-c1cccc(C(C)(C)O)n1 [Adavosertib] + CS(=O)(=O)N1CCN(Cc2cc3nc(-c4cccc5[nH]ncc45)nc(N4CCOCC4)c3s2)CC1 [Pictilisib] (partner 1 µM)
Procedure, shortened: as §1

[3] = compound: C=CCn1c(=O)c2cnc(Nc3ccc(N4CCN(C)CC4)cc3)nc2n1-c1cccc(C(C)(C)O)n1 [Adavosertib]
Procedure, shortened: (§2)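 Five library-drug doses, separated by factors of √10, were pinned into 1536-well plates holding lung cancer cell lines after an overnight stay at 37 °C. Cells were fixed, permeabilised and Hoechst-stained in one step after 5 days without medium change, then imaged at 4×. Viability compares treated-well with vehicle-well nuclei, counted in MetaXpress, as a median across plates. Passing plates had control CV below 25% and at least one doubling.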

[4] = compound: COc1nc(N)nc2c1ncn2[C@@H]1O[C@H](CO)[C@@H](O)[C@@H]1O [Nelarabine]
Procedure, shortened: as §2

**Q.** With EMC-BAC-2 as the cell line, how does the relative viability ([1]; first compound 0.01 µM) read?
**A.** 0.736

**Q.** And the relative viability ([1]; first compound 0.03162 µM)?
**A.** 0.737

**Q.** What about the relative viability ([1]; first compound 0.1 µM) of the same cell line?
**A.** 0.722

**Q.** What about the relative viability ([1]; first compound 0.3162 µM) of the same cell line?
**A.** 0.678

**Q.** What about the relative viability ([2]; first compound 0.01 µM) of the same cell line?
**A.** 0.544

**Q.** And the relative viability ([2]; first compound 0.03162 µM)?
**A.** 0.56

**Q.** And the relative viability ([2]; first compound 0.1 µM)?
**A.** 0.583

**Q.** And the relative viability ([2]; first compound 0.3162 µM)?
**A.** 0.544

**Q.** And the relative viability ([3]; 0.03162 µM)?
**A.** 1.02

**Q.** And the relative viability ([3]; 0.1 µM)?
**A.** 1.08

**Q.** And the relative viability ([3]; 0.3162 µM)?
**A.** 0.919

**Q.** What about the relative viability ([4]; 0.01 µM) of the same cell line?
**A.** 1.01

**Q.** And the relative viability ([4]; 0.03162 µM)?
**A.** 1.22

**Q.** What about the relative viability ([4]; 0.1 µM) of the same cell line?
**A.** 1.08

**Q.** What about the relative viability ([4]; 0.3162 µM) of the same cell line?
**A.** 0.968

**Q.** And the relative viability ([4]; 1 µM)?
**A.** 1.07

From the supplement of paper PMC10307832
